Assay: cooling effect perceived on ingestion of the example compositions (microemulsion tea beverage, water ice, toothpaste)
Format: in vivo, human
Settings: ingestion in the form of the compositions of Examples 1-3, relative to the same amount of the cooling active alone

Row | SMILES | cooling effect perceived
1 | COc1ccccc1N1CC=C(c2cccc([N+](=O)[O-])c2)NC1=O [1-(2′-methoxyphenyl)-4-(3″-nitrophenyl)-1,2,3,6-tetrahydropyrimidine-2-one] | prolonged the cooling effect perceived
2 | CC1CCC(C(C)C)C(O)C1 (centres unmarked) [menthol, 2-isopropyl-5-methyl-cyclohexanol] | prolonged the cooling effect perceived

Reference: patent US7192572B2, “Compound delivery systems” (Conopco, Inc., priority 2002, dated 2007)
